Data reported in the supplement of paper PMC10307832.

Key:
Test in all cases: relative viability (nuclei count vs DMSO), 5 days (fraction); higher = more cells survive
[1] = test system: UMC-11
Method in brief: (§1)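 Medians of duplicate plates are given as relative viability. That measure is the nuclei count in treated wells divided by the count in vehicle wells. Counts were taken on 4× images of lung cancer cell lines in 1536-well plates, 5 days after pin-tool dosing the day after seeding with one drug alone or a fixed anchor-drug dose plus five library-drug doses (not always all listed) in √10 steps.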

[2] = test system: LCLC-103H
Method in brief: as §1

[3] = test system: HCC-827
Method in brief: as §1

[4] = test system: NCI-H650
Method in brief: as §1

[5] = test system: NCI-H2347
Method in brief: as §1

[6] = test system: NCI-H1975
Method in brief: as §1

[7] = test system: NCI-H1355
Method in brief: as §1

[8] = test system: RERF-LC-KJ
Method in brief: as §1

[9] = test system: HCC-366
Method in brief: as §1

[10] = test system: NCI-H1915
Method in brief: as §1

[11] = test system: NCI-H2170
Method in brief: as §1

[12] = test system: SK-MES-1
Method in brief: as §1

[13] = test system: SW 1573
Method in brief: as §1

[14] = test system: LC-2-ad
Method in brief: as §1

[15] = test system: NCI-H1993
Method in brief: as §1

[16] = test system: SK-LU-1
Method in brief: as §1

[17] = test system: NCI-H1755
Method in brief: as §1

[18] = test system: A-427
Method in brief: as §1

[19] = test system: NCI-H2342
Method in brief: as §1

[20] = test system: NCI-H23
Method in brief: as §1

[21] = test system: NCI-H1734
Method in brief: as §1

[22] = test system: NCI-H2228
Method in brief: as §1

SMILES: CCNC(=O)c1noc(-c2cc(C(C)C)c(O)cc2O)c1-c1ccc(CN2CCOCC2)cc1 [Luminespib] + O=C(CCCCCCC(=O)Nc1ccccc1)NO [Vorinostat] (partner 1 µM)
- relative viability ([1]; first compound 0.002 µM): 0.393
- relative viability ([1]; first compound 0.006325 µM): 0.402
- relative viability ([1]; first compound 0.02 µM): 0.345
- relative viability ([1]; first compound 0.06325 µM): 0.302
- relative viability ([1]; first compound 0.2 µM): 0.152
- relative viability ([2]; first compound 0.002 µM): 0.616
- relative viability ([2]; first compound 0.006325 µM): 0.718
- relative viability ([2]; first compound 0.02 µM): 0.661
- relative viability ([2]; first compound 0.06325 µM): 0.75
- relative viability ([2]; first compound 0.2 µM): 0.25
- relative viability ([3]; first compound 0.002 µM): 0.817
- relative viability ([3]; first compound 0.006325 µM): 0.884
- relative viability ([3]; first compound 0.02 µM): 0.45
- relative viability ([3]; first compound 0.06325 µM): 0.797
- relative viability ([3]; first compound 0.2 µM): 0.144
- relative viability ([4]; first compound 0.002 µM): 0.429
- relative viability ([4]; first compound 0.006325 µM): 0.392
- relative viability ([4]; first compound 0.02 µM): 0.298
- relative viability ([4]; first compound 0.06325 µM): 0.158
- relative viability ([4]; first compound 0.2 µM): 0.103
- relative viability ([5]; first compound 0.002 µM): 0.54
- relative viability ([5]; first compound 0.006325 µM): 0.413
- relative viability ([5]; first compound 0.02 µM): 0.589
- relative viability ([5]; first compound 0.06325 µM): 0.38
- relative viability ([5]; first compound 0.2 µM): 0.263
- relative viability ([6]; first compound 0.002 µM): 0.736
- relative viability ([6]; first compound 0.006325 µM): 0.632
- relative viability ([6]; first compound 0.02 µM): 0.592
- relative viability ([6]; first compound 0.06325 µM): 0.138
- relative viability ([6]; first compound 0.2 µM): 0.147
- relative viability ([7]; first compound 0.002 µM): 0.581
- relative viability ([7]; first compound 0.006325 µM): 0.641
- relative viability ([7]; first compound 0.02 µM): 0.38
- relative viability ([7]; first compound 0.06325 µM): 0.398
- relative viability ([7]; first compound 0.2 µM): 0.12
- relative viability ([8]; first compound 0.002 µM): 0.624
- relative viability ([8]; first compound 0.006325 µM): 0.707
- relative viability ([8]; first compound 0.02 µM): 0.473
- relative viability ([8]; first compound 0.06325 µM): 0.467
- relative viability ([8]; first compound 0.2 µM): 0.216
- relative viability ([9]; first compound 0.002 µM): 0.38
- relative viability ([9]; first compound 0.006325 µM): 0.35
- relative viability ([9]; first compound 0.02 µM): 0.18
- relative viability ([9]; first compound 0.06325 µM): 0.0252
- relative viability ([9]; first compound 0.2 µM): 0.0243
- relative viability ([10]; first compound 0.002 µM): 0.556
- relative viability ([10]; first compound 0.006325 µM): 0.506
- relative viability ([10]; first compound 0.02 µM): 0.415
- relative viability ([10]; first compound 0.06325 µM): 0.477
- relative viability ([10]; first compound 0.2 µM): 0.0602
- relative viability ([11]; first compound 0.002 µM): 0.746
- relative viability ([11]; first compound 0.006325 µM): 0.698
- relative viability ([11]; first compound 0.06325 µM): 0.572
- relative viability ([11]; first compound 0.2 µM): 0.135
- relative viability ([12]; first compound 0.002 µM): 1.14
- relative viability ([12]; first compound 0.006325 µM): 0.931
- relative viability ([12]; first compound 0.02 µM): 1.04
- relative viability ([12]; first compound 0.06325 µM): 0.174
- relative viability ([12]; first compound 0.2 µM): 0.153
- relative viability ([13]; first compound 0.002 µM): 0.742
- relative viability ([13]; first compound 0.006325 µM): 0.874
- relative viability ([13]; first compound 0.02 µM): 0.212
- relative viability ([13]; first compound 0.06325 µM): 0.0903
- relative viability ([13]; first compound 0.2 µM): 0.0874
- relative viability ([14]; first compound 0.002 µM): 0.647
- relative viability ([14]; first compound 0.006325 µM): 0.727
- relative viability ([14]; first compound 0.02 µM): 0.554
- relative viability ([14]; first compound 0.06325 µM): 0.465
- relative viability ([14]; first compound 0.2 µM): 0.179
- relative viability ([15]; first compound 0.002 µM): 0.893
- relative viability ([15]; first compound 0.006325 µM): 0.793
- relative viability ([15]; first compound 0.02 µM): 0.552
- relative viability ([15]; first compound 0.06325 µM): 0.246
- relative viability ([15]; first compound 0.2 µM): 0.238
- relative viability ([16]; first compound 0.002 µM): 0.927
- relative viability ([16]; first compound 0.006325 µM): 0.596
- relative viability ([16]; first compound 0.02 µM): 0.615
- relative viability ([16]; first compound 0.06325 µM): 0.262
- relative viability ([16]; first compound 0.2 µM): 0.211
- relative viability ([17]; first compound 0.002 µM): 0.751
- relative viability ([17]; first compound 0.006325 µM): 0.774
- relative viability ([17]; first compound 0.02 µM): 0.835
- relative viability ([17]; first compound 0.06325 µM): 0.57
- relative viability ([17]; first compound 0.2 µM): 0.319
- relative viability ([18]; first compound 0.002 µM): 0.855
- relative viability ([18]; first compound 0.006325 µM): 0.319
- relative viability ([18]; first compound 0.02 µM): 0.807
- relative viability ([18]; first compound 0.06325 µM): 0.327
- relative viability ([18]; first compound 0.2 µM): 0.247
- relative viability ([19]; first compound 0.002 µM): 0.766
- relative viability ([19]; first compound 0.006325 µM): 0.809
- relative viability ([19]; first compound 0.02 µM): 0.467
- relative viability ([19]; first compound 0.06325 µM): 0.679
- relative viability ([19]; first compound 0.2 µM): 0.416
- relative viability ([20]; first compound 0.002 µM): 0.632
- relative viability ([20]; first compound 0.006325 µM): 0.481
- relative viability ([20]; first compound 0.02 µM): 0.315
- relative viability ([20]; first compound 0.06325 µM): 0.0969
- relative viability ([20]; first compound 0.2 µM): 0.108
- relative viability ([21]; first compound 0.002 µM): 0.719
- relative viability ([21]; first compound 0.006325 µM): 0.719
- relative viability ([21]; first compound 0.02 µM): 0.436
- relative viability ([21]; first compound 0.06325 µM): 0.132
- relative viability ([21]; first compound 0.2 µM): 0.123
- relative viability ([22]; first compound 0.002 µM): 0.873
- relative viability ([22]; first compound 0.006325 µM): 0.503
- relative viability ([22]; first compound 0.02 µM): 0.54
- relative viability ([22]; first compound 0.06325 µM): 0.143
- relative viability ([22]; first compound 0.2 µM): 0.15
